Results: patent publication US8492392B2, “Alkoxy tetrahydro-pyridopyrimidine PDE10 inhibitors” (Merck Sharp & Dohme Corp., priority 2009, dated 2013)
pKi: −log10 of the molar value.

The compounds below were run against human PDE10A2 (Homo sapiens (Human), UniProt Q9Y233) (assay: PDE10 fluorescence polarization (IMAP FP) inhibition assay). Settings: FAM-labeled cAMP substrate 50 nM, room temperature, apparent inhibition constant; read-out: PDE10A Ki.
Format: biochemical
Experimental: The activity of the compounds in accordance with the present invention as PDE10 inhibitors may be readily determined without undue experimentation using a fluorescence polarization (FP) methodology that is well known in the art (Huang, W., et al., J. Biomol Screen, 2002, 7: 215).
In a typical experiment the PDE10 inhibitory activity of the compounds of the present invention was determined in accordance with the following experimental method. PDE10A2 was amplified from human fetal brain cDNA (Clontech, Mountain View, Calif.) using a forward primer corresponding to nucleotides 56-77 of human PDE10A2 (Accession No. AF127480, Genbank Identifier 4894716), containing a Kozak consensus sequence, and a reverse primer corresponding to nucleotides 2406-2413 of human PDE10A2 (Accession No. AF127480, Genbank Identifier 4894716). Amplification with Easy-A polymerase (Stratagene, La Jolla, Calif.) was 95° C. for 2 minutes followed by thirty three cycles of 95° C. for 40 seconds, 55° C. for 30 seconds, and 72° C. for 2 minutes 48 seconds. Final extension was 72° C. for 7 minutes. The PCR product was TA cloned into pcDNA3.2-TOPO (Invitrogen, Carlsbad, Calif.) according to standard protocol. AD293 cells with 70-80% confluency were transiently transfected with human PDE10A2/pcDNA3.2-TOPO using Lipofectamine 2000 according to manufacturer specifications (Invitrogen, Carlsbad, Calif.). Cells were harvested 48 hours post-transfection and lysed by sonication (setting 3, 10×5 sec pulses) in a buffer containing 20 mM HEPES, 1 mM EDTA and protease inhibitor cocktail (Roche). Lysate was collected by centrifugation at 75,000×g for 20 minutes. Supernatant containing the cytoplasmic fraction was used for evaluation of PDE10A2 activity. The fluorescence polarization assay for cyclic nucleotide phosphodiesterases was performed using an IMAP® FP kit supplied by Molecular Devices, Sunnyvale, Calif. (product #R8139). IMAP® technology has been applied previously to phosphodiesterase assays (Huang, W., et al., J. Biomol Screen, 2002, 7: 215). Assays were performed at room temperature in 384-well microtiter plates with an incubation volume of 20.2 μL. Solutions of test compounds were prepared in DMSO and serially diluted with DMSO to yield 8 μL of each of 10 solutions differing by 3-fold in concentration, at 32 serial dilutions per plate. 100% inhibition is determined using a known PDE10 inhibitor, which can be any compound that is present at 5,000 times its Ki value in the assay described as follows, such as papaverine (see Siuciak, et al. Neuropharmacology (2006) 51:386-396; Becker, et al. Behav Brain Res (2008) 186(2):155-60; Threlfell, et al., J Pharmacol Exp Ther (2009) 328(3):785-795), 2-{4-[pyridin-4-yl-1-(2,2,2-trifluoroethyl)-1H-pyrazol-3-yl]phenoxymethyl}quinoline succinic acid or 2-[4-(1-methyl-4-pyridin-4-yl-1H-pyrazol-3-yl)-phenoxymethyl]quinoline succinic acid (see Schmidt, et al. J Pharmacol Exp Ther (2008) 325:681-690; Threlfell, et al., J Pharmacol Exp Ther (2009) 328(3): 785-795). 0% of inhibition is determined by using DMSO (1% final concentrations).
A Labcyte Echo 555 (Labcyte, Sunnyvale, Calif.) is used to dispense 200 nL from each well of the titration plate to the 384 well assay plate. A solution of enzyme (1/1600 dilution from aliquots; sufficient to produce 20% substrate conversion) and a separate solution of FAM-labeled cAMP PDE from Molecular Devices (product #R7506), at a final concentration of 50 nM are made in the assay buffer (10 mM Tris HCl, pH 7.2, 10 mM MgCl2, 0.05% NaN3 0.01% Tween-20, and 1 mM DTT). The enzyme and the substrate are then added to the assay plates in two consecutive additions of 10 μL, and then shaken to mix. The reaction is allowed to proceed at room temperature for 30 minutes. A binding solution is then made from the kit components, comprised of 80% Solution A, 20% Solution B and binding reagent at a volume of 1/600 the total binding solution. […]

Chain of human PDE10A2 (Q9Y233 267-1055): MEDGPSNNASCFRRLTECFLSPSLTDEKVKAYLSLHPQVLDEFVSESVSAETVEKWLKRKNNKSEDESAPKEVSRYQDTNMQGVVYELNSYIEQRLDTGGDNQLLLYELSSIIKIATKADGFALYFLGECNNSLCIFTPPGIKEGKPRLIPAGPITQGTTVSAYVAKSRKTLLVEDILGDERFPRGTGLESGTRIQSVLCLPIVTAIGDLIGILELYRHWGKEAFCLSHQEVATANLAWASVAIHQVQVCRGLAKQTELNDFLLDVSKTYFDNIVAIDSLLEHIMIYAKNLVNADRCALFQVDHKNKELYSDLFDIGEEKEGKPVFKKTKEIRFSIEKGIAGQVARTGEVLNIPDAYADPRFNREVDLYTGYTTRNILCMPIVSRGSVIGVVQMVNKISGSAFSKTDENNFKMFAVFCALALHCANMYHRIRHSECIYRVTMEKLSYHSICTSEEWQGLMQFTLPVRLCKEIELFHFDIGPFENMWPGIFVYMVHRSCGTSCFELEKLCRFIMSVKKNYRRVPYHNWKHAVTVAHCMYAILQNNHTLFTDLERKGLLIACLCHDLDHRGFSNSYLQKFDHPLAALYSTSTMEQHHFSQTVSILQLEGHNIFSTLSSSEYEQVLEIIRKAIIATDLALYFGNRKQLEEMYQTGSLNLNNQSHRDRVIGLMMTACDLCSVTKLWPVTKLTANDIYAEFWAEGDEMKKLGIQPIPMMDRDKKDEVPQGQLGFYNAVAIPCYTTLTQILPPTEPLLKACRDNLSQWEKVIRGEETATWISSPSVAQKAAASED

Structure (SMILES) | pKi
CCc1cccc(NC(=O)N2CCc3nc(-c4cccnc4)nc(OC4CCN(C)CC4)c3C2)c1 [Compound 1-7, N-(3-ethylphenyl)-4-[(1-methylpiperidin-4-yl)oxy]-2-pyridin-3-yl-7,8-dihydropyrido[4,3-d]pyrimidine-6(5H)-carboxamide] | 7.85
CC(C)Oc1nc(-c2cccnc2)nc2c1CN(C(=O)Nc1ccc3ccn(C)c3c1)CC2 [Compound 1-8, 4-isopropoxy-N-(1-methyl-1H-indol-6-yl)-2-pyridin-3-yl-7,8-dihydropyrido[4,3-d]pyrimidine-6(5H)-carboxamide] | 8.04
Cc1ccc(C(=O)N2CCc3nc(-c4ccc(Cl)nc4)nc(OC(C)C)c3C2)cn1 [Compound 1-14, [2-(6-chloropyridin-3-yl)-4-(propan-2-yloxy)-7,8-dihydropyrido[4,3-d]pyrimidin-6(5H)-yl](6-methylpyridin-3-yl)methanone] | 8.00
CC(C)Oc1nc(-c2ccc(Cl)nc2)nc2c1CN(S(=O)(=O)c1cccnc1)CC2 [Compound 1-17, 2-(6-chloropyridin-3-yl)-4-(propan-2-yloxy)-6-(pyridin-3-ylsulfonyl)-5,6,7,8-tetrahydropyrido[4,3-d]pyrimidine] | 9.20
CC(C)Oc1nc(-c2cccnc2)nc2c1CN(c1nc3ccccc3o1)CC2 [Compound 1-18, 6-(1,3-benzoxazol-2-yl)-4-(propan-2-yloxy)-2-(pyridin-3-yl)-5,6,7,8-tetrahydropyrido[4,3-d]pyrimidine] | 7.80
CC(C)Oc1nc(-c2ccc(Cl)nc2)nc2c1CN(C(=O)c1cn(C)cn1)CC2 [Compound 1-19, [2-(6-chloropyridin-3-yl)-4-(propan-2-yloxy)-7,8-dihydropyrido[4,3-]pyrimidin-6(5H)-yl](1-methyl-1H-imidazol-4-yl)methanone] | 8.34
COc1ccc2[nH]c(C(=O)N3CCc4nc(-c5cccnc5)nc(OC(C)C)c4C3)cc2n1 [Compound 1-20, (5-methoxy-1H-pyrrolo[3,2-b]pyridin-2-yl)[4-(propan-2-yloxy)-2-(pyridin-3-yl)-7,8-dihydropyrido[4,3-d]pyrimidin-6(5H)-yl]methanone] | 9.10
Cc1ccc(NC(=O)N2CCc3nc(N4CCCC4)nc(OC(C)C)c3C2)cn1 [Compound N-5, 4-isopropoxy-N-(6-methylpyridin-3-yl)-2-pyrrolidin-1-yl-7,8-dihydropyrido[4,3-d]pyrimidine-6(5H)-carboxamide] | 7.50
COCCOc1nc(-c2ccc(Cl)nc2)nc2c1CN(C(=O)c1cnn3ccccc13)CC2 [Compound O-2, [2-(6-chloropyridin-3-yl)-4-(2-methoxyethoxy)-7,8-dihydropyrido[4,3-d]pyrimidin-6(5H)-yl](pyrazolo[1,5-a]pyridin-3-yl)methanone] | 9.03
COCCOc1nc(-c2ccc(Cl)nc2)nc2c1CN(C(=O)c1ncn3ccccc13)CC2 [Compound Q-2, [2-(6-chloropyridin-3-yl)-4-(2-methoxyethoxy)-7,8-dihydropyrido[4,3-d]pyrimidin-6(5H)-yl](imidazo[1,5-a]pyridin-1-yl)methanone] | 9.00
COC[C@H](C)Oc1nc(-c2ccc(Cl)nc2)nc2c1CN(C(=O)c1ncn3ccccc13)CC2 [Compound T-1, [2-(6-chloropyridin-3-yl)-4-{[(2S)-1-methoxypropan-2-yl]oxy}-7,8-dihydropyrido[4,3-d]pyrimidin-6(5H)-yl](imidazo[1,5-a]pyridin-1-yl)methanone] | 9.37

The next lines start with the values.

pKi | Structure (SMILES)
9.22 | Cc1ccc(NC(=O)N2CCc3nc(-c4ccc(Cl)nc4)nc(OC(C)C)c3C2)cn1 [Compound 1-11, 2-(6-chloropyridin-3-yl)-N-(6-methylpyridin-3-yl)-4-(propan-2-yloxy)-7,8-dihydropyrido[4,3-d]pyrimidine-6(5H)-carboxamide]
9.08 | COc1cc(NC(=O)N2CCc3nc(-c4ccc(Cl)nc4)nc(O[C@@H]4CCOC4)c3C2)ccn1 [Compound 1-13, 2-(6-chloropyridin-3-yl)-N-(2-methoxypyridin-4-yl)-4-[(3R)-tetrahydrofuran-3-yloxy]-7,8-dihydropyrido[4,3-d]pyrimidine-6(5H)-carboxamide]
9.05 | CC(C)Oc1nc(-c2ccc(Cl)nc2)nc2c1CN(C(=O)Nc1cnn(C)c1)CC2 [Compound K-2, 2-(6-chloropyridin-3-yl)-N-(1-methyl-1H-pyrazol-4-yl)-4-(propan-2-yloxy)-7,8-dihydropyrido-[4,3-d]pyrimidine-6(5H)-carboxamide]
9.04 | COC[C@H](C)Oc1nc(-c2ccc(Cl)nc2)nc2c1CN(C(=O)Nc1ccc(C)nc1)CC2 [Compound P-5, 2-(6-chloropyridin-3-yl)-4-{[(2S)-1-methoxypropan-2-yl]oxy}-N-(6-methylpyridin-3-yl)-7,8-dihydropyrido[4,3-d]pyrimidine-6(5H)-carboxamide]
7.90 | COCCOc1nc(-c2ccc(C)nc2)nc2c1CN(C(=O)c1cnn3ccccc13)CC2 [Compound R-1, 4-(2-methoxyethoxy)-2-(6-methylpyridin-3-yl)-6-(pyrazolo[1,5-a]pyridin-3-ylcarbonyl)-5,6,7,8-tetrahydropyrido[4,3-d]pyrimidine]
7.77 | COCCOc1nc(-c2ccc(Cl)nc2)nc2c1CN(C(=O)Oc1ccccc1)CC2 [Compound S-1, phenyl 2-(6-chloropyridin-3-yl)-4-(2-methoxyethoxy)-7,8-dihydropyrido[4,3-d]pyrimidine-6(5H)-carboxylate]
